Structures can show the parent of a compound that is named as a salt. Where two headings read alike, the source gives them in different places.
Assays:
[1] = in vivo
Description: Serum bilirubin within the institutional normal range, albumin≧3 g/dL, and Karnofsky Performance Status (KPS)≧70 were required for study entry.
TEAEs were graded by NCI CTCAE v4.0 and coded by MedDRA v14.1 for the following prespecified subgroups: sex, age (<65 vs ≧65 years), ethnicity (white vs Asian), UGT1A1*28 status, prior conventional irinotecan therapy (yes vs no), and prior 5-FU therapy (yes vs no). All TEAEs were followed until resolution or patient discontinuation. Analyses were performed on the safety population (ie, those who received≧1 dose of study medication).
All TEAEs were followed until resolution or patient discontinuation. The safety analysis population included all patients who received≧1 dose of study drug. The presence of the UGT1A1*28 allele was determined by genotype testing, and homozygous patients were identified (A7/TA7 genotype)

[2] = dog, in vivo
[3] = rats, cited from earlier work
[4] = rabbits, 6 mg/kg/day; cited from earlier work
[5] = cited from earlier work
[6] = system: cytochrome P-450 isozymes; conditions: in vitro; cited from earlier work
[7] = intravenous; cited from earlier work
[8] = rat, in vivo; cited from earlier work
[9] = mouse; cited from earlier work
[10] = intravenous; cited from earlier work; remark: listed apart in the source
[11] = human, in vivo; cited from earlier work

irinotecan sucrose octasulfate salt liposome injection [MM-398]
Incidence of neutropenic sepsis [1]: 0.8% | Doses with atrophy of male and female reproductive organs [2]: ≥ 13 mg/kg

CCc1c2c(nc3ccc(OC(=O)N4CCC(N5CCCCC5)CC4)cc13)-c1cc3c(c(=O)n1C2)COC(=O)[C@]3(O)CC [irinotecan, (5) 4,11-diethyl-3,4,12,14-tetrahydro-4-hydroxy-3,14-dioxo1H-pyrano[3′,4′: 6,7]-indolizino[1,2b]quinolin-9-yl-[1,4′bipiperidine]-1′-carboxylate]
Embryo-fetal effects, intravenous during organogenesis ([3]; 6 mg/kg/day): increased post-implantation loss and decreased numbers of live fetuses | Placental transfer ([3]; intravenous): crosses the placenta | Embryo-fetal effects, intravenous during organogenesis [4]: increased post-implantation loss and decreased numbers of live fetuses | Incidence of grade 4 neutropenia ([5]; 350 mg/m2 once every-3-weeks, homozygous UGT1A1*28): ≤ 50% | Incidence of grade 4 neutropenia ([5]; heterozygous (UGT1A1 6/7 genotype)): 12.5% | Incidence of grade 4 neutropenia ([5]; homozygous wild-type (UGT1A1 6/6 genotype)): no grade 4 neutropenia was observed | Inhibition of cytochrome P-450 isozymes [6]: do not inhibit cytochrome P-450 isozymes

CCc1c2c(nc3ccc(OC(=O)N4CCC(N5CCCCC5)CC4)cc13)-c1cc3c(c(=O)n1C2)COC(=O)[C@]3(O)CC [irinotecan HCl, (5) 4,11-diethyl-3,4,12,14-tetrahydro-4-hydroxy-3,14-dioxo1H-pyrano[3′,4′:6,7]-indolizino[1,2 b]quinolin-9-yl-[1,4′bipiperidine]-1′-carboxylate, monohydrochloride, trihydrate]
Effects in offspring, dams dosed after organogenesis through weaning ([3]; 6 mg/kg/day): decreased learning ability and decreased female body weights in the offspring | Doses giving structural abnormalities and growth delays [3]: greater than 1.2 mg/kg/day | Time to appearance of radioactivity in milk [7]: ≤ 5 min | Carcinogenicity finding [8]: significant linear trend between irinotecan HCl dosage and the incidence of combined uterine horn endometrial stromal polyps and endometrial stromal sarcomas | Clastogenicity in vivo [9]: clastogenic | Doses without significant adverse effects on fertility and general reproductive performance [10]: up to 6 mg/kg/day | Effect of dexamethasone (moderate CYP3A4 inducer) on pharmacokinetics of irinotecan [11]: does not alter the pharmacokinetics of irinotecan | Exposure to irinotecan and SN-38 with concomitant ketoconazole [11]: increased exposure | Exposure to irinotecan or SN-38 with CYP3A4 enzyme-inducing anticonvulsants or St. John's wort [11]: substantially reduced | Urinary excretion of SN-38 [11]: < 1% | Urinary excretion of SN-38 glucuronide [11]: 3%

CCc1c2c(nc3ccc(O)cc13)-c1cc3c(c(=O)n1C2)COC(=O)[C@]3(O)CC [SN-38]
Inhibition of cytochrome P-450 isozymes [6]: do not inhibit cytochrome P-450 isozymes
